Measurements: ChEMBL document CHEMBL4665668, “Design and development of molecular hybrids of 2-pyridylpiperazine and 5-phenyl-1,3,4-oxadiazoles as potential multifunctional agents to treat Alzheimer's disease” (Eur J Med Chem, 2019)

How the values were obtained:
Acetylcholinesterase = Acetylcholinesterase (Homo sapiens, UniProt P22303); assay: Inhibition of human erythrocytes AChE using acetylthiocholine iodide as substrate preincubated for 10 mins followed by substrate addition by Ellman's method; type: tissue-based, Erythrocyte
Sequence of Acetylcholinesterase (P22303 whole entry): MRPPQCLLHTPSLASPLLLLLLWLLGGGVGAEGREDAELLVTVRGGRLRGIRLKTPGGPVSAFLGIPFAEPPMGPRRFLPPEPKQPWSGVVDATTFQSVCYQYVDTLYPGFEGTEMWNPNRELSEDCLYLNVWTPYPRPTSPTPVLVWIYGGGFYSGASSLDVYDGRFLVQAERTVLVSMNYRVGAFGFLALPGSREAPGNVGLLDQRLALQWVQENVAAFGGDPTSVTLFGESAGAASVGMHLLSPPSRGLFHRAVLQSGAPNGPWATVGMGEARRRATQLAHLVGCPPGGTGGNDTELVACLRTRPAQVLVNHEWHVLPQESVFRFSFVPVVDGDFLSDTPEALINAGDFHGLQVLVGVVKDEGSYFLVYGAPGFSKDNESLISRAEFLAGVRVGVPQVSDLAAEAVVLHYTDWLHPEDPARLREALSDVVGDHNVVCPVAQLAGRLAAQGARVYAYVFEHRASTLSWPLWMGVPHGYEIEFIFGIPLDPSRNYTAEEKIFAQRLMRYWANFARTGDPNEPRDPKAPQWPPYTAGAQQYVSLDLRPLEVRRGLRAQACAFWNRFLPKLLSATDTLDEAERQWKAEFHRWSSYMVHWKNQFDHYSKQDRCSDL

Beta-secretase 1 = Beta-secretase 1 (Homo sapiens, UniProt P56817); assay: Inhibition of human BACE-1 using MOCA-SEV-NL-DAEFR-DNP-RR as substrate preincubated with substrate followed by enzyme addition by FRET assay
Sequence of Beta-secretase 1 (P56817 whole entry): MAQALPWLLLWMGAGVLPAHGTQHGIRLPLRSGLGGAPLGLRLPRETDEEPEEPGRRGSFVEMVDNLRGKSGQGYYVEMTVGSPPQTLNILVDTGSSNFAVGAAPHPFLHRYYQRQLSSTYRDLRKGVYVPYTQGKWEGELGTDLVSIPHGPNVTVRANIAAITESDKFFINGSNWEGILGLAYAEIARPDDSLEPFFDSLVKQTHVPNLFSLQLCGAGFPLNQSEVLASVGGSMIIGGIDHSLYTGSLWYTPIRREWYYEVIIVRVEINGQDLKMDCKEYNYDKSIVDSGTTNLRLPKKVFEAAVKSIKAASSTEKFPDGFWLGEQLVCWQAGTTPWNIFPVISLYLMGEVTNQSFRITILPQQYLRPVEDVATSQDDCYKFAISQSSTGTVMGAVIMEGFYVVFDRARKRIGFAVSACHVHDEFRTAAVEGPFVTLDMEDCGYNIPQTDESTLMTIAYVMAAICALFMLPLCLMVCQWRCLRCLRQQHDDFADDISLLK

Cholinesterase = Cholinesterase (Homo sapiens, UniProt P06276); assay: Inhibition of human serum BChE using butyrylthiocholine iodide as substrate preincubated for 10 mins followed by substrate addition by Ellman's method; type: cell-free
Sequence of Cholinesterase (P06276 whole entry): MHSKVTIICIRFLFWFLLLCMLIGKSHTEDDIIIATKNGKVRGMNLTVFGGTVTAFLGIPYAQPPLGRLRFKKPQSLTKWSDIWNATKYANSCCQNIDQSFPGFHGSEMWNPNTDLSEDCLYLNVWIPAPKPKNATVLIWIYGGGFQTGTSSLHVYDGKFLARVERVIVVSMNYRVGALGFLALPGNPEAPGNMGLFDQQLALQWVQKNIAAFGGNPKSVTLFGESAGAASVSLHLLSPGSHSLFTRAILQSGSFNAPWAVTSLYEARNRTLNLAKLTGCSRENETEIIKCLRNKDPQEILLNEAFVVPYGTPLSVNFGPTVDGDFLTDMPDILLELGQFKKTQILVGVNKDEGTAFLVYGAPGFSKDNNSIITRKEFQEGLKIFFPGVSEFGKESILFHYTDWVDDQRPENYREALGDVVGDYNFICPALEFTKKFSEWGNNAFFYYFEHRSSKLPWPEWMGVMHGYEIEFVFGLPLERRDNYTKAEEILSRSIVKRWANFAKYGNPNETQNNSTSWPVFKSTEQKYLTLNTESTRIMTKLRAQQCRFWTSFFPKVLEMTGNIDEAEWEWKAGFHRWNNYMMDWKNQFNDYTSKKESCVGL

[1] = Permeability of the compound in PBS/EtOH buffer (7:3) at 25 ug/ml after 18 hrs by PAMPA-BBB assay

O=[N+]([O-])c1ccc(-c2nnc(N3CCN(c4ccccn4)CC3)o2)cc1 gave an IC50 (Acetylcholinesterase) of 0.219 µM, an IC50 (Beta-secretase 1) of 1.34 µM and an IC50 (Cholinesterase) of 2.86 µM.

Compound O=C(N/N=C/c1ccc(O)cc1)N1CCN(c2ccccn2)CC1 has an IC50 (Acetylcholinesterase) of 4.81 µM, an IC50 (Beta-secretase 1) of 4.68 µM and an IC50 (Cholinesterase) of 6.15 µM.

With FC(F)(F)Oc1ccc(-c2nnc(N3CCN(c4ccccn4)CC3)o2)cc1 the IC50 (Acetylcholinesterase) was 0.089 µM, the IC50 (Beta-secretase 1) was 0.822 µM and the IC50 (Cholinesterase) was 1.96 µM. For the same compound, the Papp at 18 h, 25 ug/ml [1] was 6.8 ×10⁻⁶ cm/s.

Compound O=C(N/N=C/c1ccc(OC(F)(F)F)cc1)N1CCN(c2ccccn2)CC1 has an IC50 (Acetylcholinesterase) of 2.91 µM, an IC50 (Beta-secretase 1) of 0.248 µM and an IC50 (Cholinesterase) of 4.35 µM.

FC(F)(F)c1ccc(-c2nnc(N3CCN(c4ccccn4)CC3)o2)cc1 showed an IC50 (Acetylcholinesterase) of 0.182 µM, an IC50 (Beta-secretase 1) of 0.465 µM and an IC50 (Cholinesterase) of 2.12 µM. For the same compound, the Papp at 18 h, 25 ug/ml [1] was 6.3 ×10⁻⁶ cm/s.

Compound O=C(N/N=C/c1ccc(O)cc1O)N1CCN(c2ccccn2)CC1 has an IC50 (Acetylcholinesterase) of 4.68 µM, an IC50 (Beta-secretase 1) of 4.64 µM and an IC50 (Cholinesterase) of 4.82 µM.

In the case of Oc1ccc(-c2nnc(N3CCN(c4ccccn4)CC3)o2)c(O)c1, the IC50 (Acetylcholinesterase) is reported as 1.34 µM, the IC50 (Beta-secretase 1) is reported as 0.382 µM and the IC50 (Cholinesterase) is reported as 3.29 µM.

With COc1cccc(-c2nnc(N3CCN(c4ccccn4)CC3)o2)c1OC the IC50 (Acetylcholinesterase) was 1.19 µM, the IC50 (Beta-secretase 1) was 2.16 µM and the IC50 (Cholinesterase) was 5.22 µM.

Cc1cccc(-c2nnc(N3CCN(c4ccccn4)CC3)o2)c1 gave an IC50 (Acetylcholinesterase) of 5.24 µM, an IC50 (Beta-secretase 1) of 2.64 µM and an IC50 (Cholinesterase) greater than 10 µM.

Compound COc1cc(-c2nnc(N3CCN(c4ccccn4)CC3)o2)cc(OC)c1OC has an IC50 (Acetylcholinesterase) of 0.222 µM, an IC50 (Beta-secretase 1) of 3.24 µM and an IC50 (Cholinesterase) of 3.64 µM.

O=C(N/N=C/c1ccc(C(F)(F)F)cc1)N1CCN(c2ccccn2)CC1 gave an IC50 (Acetylcholinesterase) of 1.32 µM, an IC50 (Beta-secretase 1) of 1.82 µM and an IC50 (Cholinesterase) of 4.04 µM.

Compound O=C(N/N=C/c1ccccc1O)N1CCN(c2ccccn2)CC1 has an IC50 (Acetylcholinesterase) greater than 10 µM, an IC50 (Beta-secretase 1) of 5.88 µM and an IC50 (Cholinesterase) greater than 10 µM.

For c1ccc(-c2nnc(N3CCN(c4ccccn4)CC3)o2)cc1, the IC50 (Acetylcholinesterase) was 0.341 µM, the IC50 (Beta-secretase 1) was 3.22 µM and the IC50 (Cholinesterase) was 3.27 µM.

With O=C(N/N=C/c1ccc(Br)cc1)N1CCN(c2ccccn2)CC1 the IC50 (Acetylcholinesterase) was 0.489 µM, the IC50 (Beta-secretase 1) was 0.296 µM and the IC50 (Cholinesterase) was 1.88 µM. For the same compound, the Papp at 18 h, 25 ug/ml [1] was 3.6 ×10⁻⁶ cm/s.

For COc1cc(/C=N/NC(=O)N2CCN(c3ccccn3)CC2)cc(OC)c1OC, the IC50 (Acetylcholinesterase) was 5.69 µM, the IC50 (Beta-secretase 1) was 4.64 µM and the IC50 (Cholinesterase) was 4.68 µM.

For Clc1ccc(-c2nnc(N3CCN(c4ccccn4)CC3)o2)cc1, the IC50 (Acetylcholinesterase) was 0.102 µM, the IC50 (Beta-secretase 1) was 1.32 µM and the IC50 (Cholinesterase) was 1.82 µM.
